Experimental findings from patent US7271171B2, “Adenosine A3 receptor modulators” (King Pharmaceuticals Research and Development, Inc., priority 1998, dated 2007) are described below.

In general, Ki refers to a dissociation constant, usually derived from enzyme kinetics or from competition with a known ligand.

Assay [1] deals with T1, human recombinant A3 adenosine receptor (Homo sapiens, UniProt P0DMS8).
T1 sequence (P0DMS8 1-318): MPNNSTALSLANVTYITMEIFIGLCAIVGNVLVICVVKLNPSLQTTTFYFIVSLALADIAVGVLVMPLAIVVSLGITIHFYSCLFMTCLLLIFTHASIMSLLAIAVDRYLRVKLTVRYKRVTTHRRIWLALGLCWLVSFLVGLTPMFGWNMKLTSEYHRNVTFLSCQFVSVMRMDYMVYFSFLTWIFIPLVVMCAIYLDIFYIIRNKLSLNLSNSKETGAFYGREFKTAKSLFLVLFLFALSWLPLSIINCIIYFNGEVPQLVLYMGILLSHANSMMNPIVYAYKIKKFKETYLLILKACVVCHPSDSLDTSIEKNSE
The assay is described as follows: Human cloned A3 adenosine receptor binding assay, [125I]AB-MECA, HEK-293 membranes. Details: USA; host or cells: HEK-293. The note with it: for Ki: HEK-293 membranes, [125I]AB-MECA, read-out: hA3 (Ki); for rA1/hA3 / rA2A/hA3: selectivity ratio of Ki values; for affinity at human adenosine A3 receptor subtype (in words): discussion of Table 1.

The target in assay [2] is T2, rA1 adenosine receptor (Rattus norvegicus, UniProt P25099).
T2 construct: membranes of rat brain (150-200 μg- of protein/assay); from tissue; host or cells: whole brain of male Wistar rats
T2 sequence (P25099 1-326): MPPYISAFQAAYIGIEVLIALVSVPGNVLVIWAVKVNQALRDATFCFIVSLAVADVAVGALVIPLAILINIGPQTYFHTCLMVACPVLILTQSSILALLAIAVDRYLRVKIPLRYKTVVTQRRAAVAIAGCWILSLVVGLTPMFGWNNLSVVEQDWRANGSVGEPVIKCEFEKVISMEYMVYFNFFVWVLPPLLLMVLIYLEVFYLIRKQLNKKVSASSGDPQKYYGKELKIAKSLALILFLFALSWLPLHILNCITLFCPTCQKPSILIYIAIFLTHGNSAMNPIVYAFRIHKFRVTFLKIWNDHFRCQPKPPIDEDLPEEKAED
The assay is described as follows: Rat A1 adenosine receptor binding assay, [3H]CHA displacement, rat brain membranes.
Description: (§1) Male Wistar rats (200-250 g) were decapitated and the whole brain and striatum dissected on ice. […] The homogenate was centrifuged at 48,000 for 10 min, and the pellet was resuspended in the same buffer containing 2 IU/mL adenosine deaminase. After 30 min incubation at 37° C., the membranes were centrifuged and pellets were stored at −80° C. Prior to freezing, an aliquot of homogenate was removed for protein assay with bovine albumin as reference standard. Binding assays were performed on rat brain and striatum membranes respectively, in the presence of 10 mM MgCl2 at 25° C.
(§2) Separation of bound from free radio ligand was performed by rapid filtration through Whatman GF/B filters which were washed three times with ice-cold buffer. Filter bound radioactivity was measured by scintillation spectrometry after addition of 5 mL of Aquassure. […] Ki values were calculated from the Cheng-Prusoff equation. All binding data were analyzed using the nonlinear regression curve-fitting computer program LIGAND.

The target in assay [3] is T3, rA2A adenosine receptor (Rattus norvegicus, UniProt P30543).
T3 construct: membranes of rat striatum (80-100 μmg of protein/assay); from tissue; host or cells: striatum of male Wistar rats
T3 sequence (P30543 whole entry): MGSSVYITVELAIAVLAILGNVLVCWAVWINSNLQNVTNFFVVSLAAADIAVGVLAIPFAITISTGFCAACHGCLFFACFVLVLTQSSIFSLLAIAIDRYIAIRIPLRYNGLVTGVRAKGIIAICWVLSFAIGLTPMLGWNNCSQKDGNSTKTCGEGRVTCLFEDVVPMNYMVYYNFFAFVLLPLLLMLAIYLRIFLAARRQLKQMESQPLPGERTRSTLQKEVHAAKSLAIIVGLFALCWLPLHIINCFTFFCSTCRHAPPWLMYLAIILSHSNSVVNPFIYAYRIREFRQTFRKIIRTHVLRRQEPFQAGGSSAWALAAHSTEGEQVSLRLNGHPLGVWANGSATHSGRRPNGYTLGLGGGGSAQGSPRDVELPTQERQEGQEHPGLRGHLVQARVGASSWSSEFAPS
The assay is described as follows: Rat A2A adenosine receptor binding assay, [3H]SCH58261 displacement, rat striatum membranes.
Description: as §1, §2

[4] abbreviates: rat striatum membranes, [3H]SCH58261, read-out: rA2A (Ki).

Read-outs that look alike come from different tables or passages of the source.

With `COc1ccc(NC(=O)Nc2nc3nn(C)cc3c3nc(-c4ccco4)nn23)cc1` [Compound 43, 5-[[(4-Methoxyphenyl)amino]carbonyl]amino-8-methyl-2-(2-furyl)-pyrazolo[4,3-e]1,2,4-triazolo[1,5-c]pyrimidine], in assay [1], the Ki came out at 0.1 nM, the rA1/hA3 is reported as >100,000 and the rA2A/hA3 is on record as >100,000. In addition, the Ki in assay [2] is greater than 10000 nM. In assay [3] (setting [4]), the inhibition constant Ki was greater than 10000 nM.
With `CC(C)=CCn1cc2c(nc(NC(=O)Nc3cccc(Cl)c3)n3nc(-c4ccco4)nc23)n1` [Compound 52], in assay [1], the Ki is 147 nM, the rA1/hA3 is listed as 25.4 and the rA2A/hA3 was found to be 9.8. Further, the Ki in assay [2] amounted to 3740 nM. The Ki in assay [3] (setting [4]) was determined as 1450 nM.
In the case of `Nc1nc2nn(CCCc3ccccc3)cc2c2nc(-c3ccco3)nn12` [Compound 41, 5-Amino-8-(3-(phenyl)propyl)-2-(2-furyl)-pyrazolo[4,3-e]1,2,4-triazolo[1,5-c]pyrimidine], the Ki in assay [1] amounted to 2670 nM; in assay [2], 11.1 nM; in assay [3] (setting [4]) it was 0.59 nM. For the same molecule, the “affinity at human adenosine A3 receptor subtype (in words)” value in assay [1] is on record as “low affinity”.
In the case of `CCCn1cc2c(nc(NC(=O)Nc3cccc(Cl)c3)n3nc(-c4ccco4)nc23)n1` [Compound 46, 5-[[(3-Chlorophenyl)amino]carbonyl]amino-8-propyl-2-(2-furyl)-pyrazolo[4,3-e]1,2,4-triazolo[1,5-c]pyrimidine], the values for the Ki in assay [1], in assay [2] and in assay [3] (setting [4]) were 0.49 nM, 1580 nM and less than 10000 nM, respectively. For the same molecule, in assay [1], the rA1/hA3 was 3,228. The rA2A/hA3 in assay [1] is given as >20,408.
For the molecule `Nc1nc2nn(CCc3ccccc3)cc2c2nc(-c3ccco3)nn12` [Compound 40, 5-Amino-8-(2-(phenyl)ethyl)-2-(2-furyl)-pyrazolo[4,3-e]1,2,4-triazolo[1,5-c]pyrimidine], the Ki in assay [1] was 2780 nM; in assay [2], 2.16 nM; in assay [3] (read-out: rA2A (Ki)) it was 0.7 nM. For the same molecule, in assay [1], the “affinity at human adenosine A3 receptor subtype (in words)” value is reported as “low affinity”. Further, the “affinity for A2A adenosine receptors (in words)” value in assay [3] was “great affinity”.
Take `COc1ccc(NC(=O)Nc2nc3nn(CCCc4ccccc4)cc3c3nc(-c4ccco4)nn23)cc1` [Compound 57, 5-[[(4-Methoxyphenyl)amino]carbonyl]amino-8-(3(phenyl)propyl)-2-(2-furyl)-pyrazolo[4,3-e]1,2,4-triazolo[1,5-c]pyrimidine]: the figures for the Ki in assay [1], in assay [2] and in assay [3] (setting [4]) were 19.8 nM, 1510 nM and greater than 10000 nM, respectively. In addition, in assay [1], the rA1/hA3 amounted to 76.4. Besides, the rA2A/hA3 in assay [1] is greater than 504.
Take `CCCn1cc2c(nc(N)n3nc(-c4ccco4)nc23)n1` [Compound 36, 5-Amino-8-propyl-2-(2-furyl)-pyrazolo[4,3-e]1,2,4-triazolo[1,5-c]pyrimidine]: in assay [1], the inhibition constant (Ki) turned out to be 613 nM, the rA1/hA3 is 0.22 and the rA2A/hA3 was found to be 0.03. Besides, in assay [2], the affinity corresponds to a Ki of 139 nM. In addition, the inhibition constant (Ki) in assay [3] (setting [4]) is 20.2 nM.
On the same counts, the results for `O=C(Cc1ccccc1)Nc1nc2nn(CCCc3ccccc3)cc2c2nc(-c3ccco3)nn12` [Compound 59, 5-[(Benzyl)carbonyl]amino-8-(3-(phenyl)propyl)-2-(2-furyl)-pyrazolo[4,3-e]1,2,4-triazolo[1,5-c]pyrimidine] are 121 nM, 2.8, 3.3, 345 nM and 400 nM.
As for `Cn1cc2c(nc(NC(=O)Nc3cccc(Cl)c3)n3nc(-c4ccco4)nc23)n1` [Compound 42, 5-[[(3-Chlorophenyl)amino]carbonyl]amino-8-methyl-2-(2-furyl)-pyrazolo[4,3-e]1,2,4-triazolo[1,5-c]pyrimidine], in assay [1], the Ki amounted to 0.22 nM, the rA1/hA3 is listed as 22,931 and the rA2A/hA3 was >45,454. Besides, the affinity in assay [2], expressed as Ki, was 5050 nM. The Ki in assay [3] (setting [4]) was greater than 10000 nM.
On to `CC(C)CCn1cc2c(nc(NC(=O)Nc3cccc(Cl)c3)n3nc(-c4ccco4)nc23)n1` [Compound 50, 5-[[(3-Chlorophenyl)amino]carbonyl]amino-8-isopentyl-2-(2-furyl)-pyrazolo[4,3-e]1,2,4-triazolo[1,5-c]pyrimidine], for which, in assay [1], the Ki came to 81.1 nM, the rA1/hA3 stood at 20 and the rA2A/hA3 stood at 15. This molecule also came in with a Ki in assay [2] of 1650 nM. The Ki in assay [3] (setting [4]) worked out at 1200 nM.
Take `CCCCn1cc2c(nc(NC(=O)Nc3ccc(OC)cc3)n3nc(-c4ccco4)nc23)n1` [Compound 49, 5-[[(4-Methoxyphenyl)amino]carbonyl]amino-8-butyl-2-(2-furyl)-pyrazolo[4,3-e]1,2,4-triazolo[1,5-c]pyrimidine]: the Ki turned out to be 0.3 nM in assay [1], 2100 nM in assay [2] and 649 nM in assay [3].
In the case of `COc1ccc(NC(=O)Nc2nc3nn(CCC(C)C)cc3c3nc(-c4ccco4)nn23)cc1` [Compound 51, 5-[[(4-Methoxyphenyl)amino]carbonyl]amino-8-isopentyl-2-(2-furyl)-pyrazolo[4,3-e]1,2,4-triazolo[1,5-c]pyrimidine], the Ki in assay [1] was 29.6 nM; in assay [2], 476 nM; in assay [3] (setting [4]), 376 nM. Moreover, in assay [1], the rA1/hA3 is recorded as 16. The rA2A/hA3 in assay [1] is on record as 13.
Regarding `COc1ccc(NC(=O)Nc2nc3nn(CC=C(C)C)cc3c3nc(-c4ccco4)nn23)cc1` [Compound 53, 5-[[(4-Methoxyphenyl)amino]carbonyl]amino-8-(2-isopentenyl)-2-(2-furyl)-pyrazolo[4,3-e]1,2,4-triazolo[1,5-c]pyrimidine], in assay [1], the Ki came to 29.6 nM, the rA1/hA3 came out at 179 and the rA2A/hA3 is greater than 338. Also, the Ki in assay [2] turned out to be 5300 nM. Besides, the Ki in assay [3] (setting [4]) is greater than 10000 nM.
With `CCn1cc2c(nc(NC(=O)Nc3cccc(Cl)c3)n3nc(-c4ccco4)nc23)n1` [Compound 44, 5-[[(3-Chlorophenyl)amino]carbonyl]amino-8-ethyl-2-(2-furyl)-pyrazolo[4,3-e]1,2,4-triazolo[1,5-c]pyrimidine], in assay [1], the Ki turned out to be 2.09 nM, the rA1/hA3 is 1,291 and the rA2A/hA3 is on record as 1,339. This molecule showed a Ki in assay [2] of 2700 nM. In assay [3] (setting [4]), the Ki is 2800 nM.
In the same order, the values of `COc1ccc(NC(=O)Nc2nc3nn(CCc4ccccc4)cc3c3nc(-c4ccco4)nn23)cc1` [Compound 55, 5-[[(4-Methoxyphenyl)amino]carbonyl]amino-8-(2-(phenyl)ethyl)-2-(2-furyl)-pyrazolo[4,3-e]1,2,4-triazolo[1,5-c]pyrimidine] are 1.47 nM, 872, 951, 1280 nM and 1400 nM.
